US20110118277A1, “METHOD OF TREATING LIVER DISEASE” (priority 2003, published 2011)

Columns and labels:
[1] = tested on: Mouse hepatic oval cells (HOC); experiment: Oval cell growth in culture (WST-8 cell number assay); assay type: cell-based; settings: 48 hours; for effect on ISO-induced oval cell proliferation: propranolol 10 μM; for effect on ISO-induced oval cell proliferation / effect on NE-induced oval cell proliferation: pertussis toxin 100 ng/ml, PD98059 20 μM, SB202190 10 μM; for effect on NE-induced oval cell proliferation: prazosin 10 μM
Method: Mouse hepatic oval cells (HOC) (from Dr. Bryon Petersen, University of Florida College of Medicine, Gainesville, Fla.) were maintained in culture with Iscove's modified DMEM according to the protocol described in PNAS 99: 8078-8083, 2002. To confirm that the cells retained their oval cell phenotype in our hands, expression of the embryonic isoform of pyruvate kinase (M2-PK) was evaluated by immunocytochemistry and immunoblot.
Sub-confluent HOC were harvested by gentle trypsinisation and resuspended in serum-free Iscove's modified Dulbecco's minimal essential medium (DMEM), at a density of 5,000 cells/100 μl/well in 96-well plates. […] After 44 hours, cell numbers were assessed by a further 4 h incubation with WST-8 tetrazolium reagent (Dojindo Molecular Technologies, Gaithersburg, Md.) as described in J Clin Invest 106: 501-509, 2000. In viable cells, the tetrazolium salt is metabolized to a colorimetric dye and cell number is proportional to the signal intensity at 450 nm Therefore, this assay reliably detects treatment-induced changes in cell number.
Oval cells were cultured in serum free medium (SF), serum or serum plus increasing concentrations of NE (a) or ISO (c). After 48 hours, the numbers of cells in culture were evaluated. […] Cell numbers were determined after 48 hours.

oval cells = experiment: Oval cell accumulation in Dbh-deficient mice fed MCD diet plus ethionine; assay type: in vivo, mouse; settings: 4 weeks, ISO infused, FIG. 11
Excerpt: Male Dbh* C57B 116 mice and their heterozygous littermates were generated and maintained as previously described in Cell 91: 583-592, 1997, and used at 30-40 weeks of age. Wild type C57B 116 mice were from Jackson Laboratory (Bar Harbor, Me.) Animals were allowed access to diets and water ad libitum. To induce oval cell expansion, mice were fed methionine choline deficient diets (ICN, Aurora, Ohio) supplemented with 0.15% Ethionine in the drinking water for 4 weeks. […]
Details of the staining procedures are as described in Am J Pathol 161: 521-530, 2002. […] Mouse monoclonal OV6 antibody and rat anti-cytokeratin 19 were detected using the DAKO Animal Research Kit, peroxidase (Dako, Denmark). The rabbit polyclonal antibody against 56 and 64 kiD human callus cytokeratins was detected by anti-rabbit Envision (Dako, Denmark) as described in J Pathol 199:191-200, 2003. […]
For each liver section, the number of oval cells in 5, randomly selected, non-overlapping, high power (×40 objective) fields was counted. […] Interlobular bile ducts were not considered progenitor cells and, thus not counted as such.
Dbh* and their control Dbh* littermates were fed methionine choline deficient (MCD) diets to induce oval cell expansion. […] Oval cell numbers were counted in 5 randomly selected fields/section from 4 mice/group. […]

## CC(C)NCC(O)COc1cccc2ccccc12 (centres unmarked) [propranolol]
[1]
  effect on ISO-induced oval cell proliferation: attenuated

## Oc1ccc(-c2nc(-c3ccncc3)c(-c3ccc(F)cc3)[nH]2)cc1 [SB202190]
[1]
  effect on NE-induced oval cell proliferation: tends to reduce the effect of NE and ISO, but this is not statistically significant
  effect on ISO-induced oval cell proliferation: tends to reduce the effect of NE and ISO, but this is not statistically significant

## pertussis toxin
[1]
  effect on NE-induced oval cell proliferation: significantly attenuated
  effect on ISO-induced oval cell proliferation: significantly attenuated

## CC(C)NCC(O)c1ccc(O)c(O)c1 (centres unmarked) [ISO, isoprenaline]
[1]; 5% serum
  effect on proliferation of cultured oval cells: promotes the proliferation of oval cells
[1]; ISO, 5% serum
  concentration of peak proliferative activity (biphasic), first peak: 100 nM
  concentration of peak proliferative activity (biphasic), second peak: 10 mM
Oval cells
  hepatic oval cell accumulation in Dbh-deficient mice: p<0.05 Dbh*+ISO versus Dbh*

## COc1cccc(-c2cc(=O)c3ccccc3o2)c1N [PD98059]
[1]
  effect on NE-induced oval cell proliferation: significantly attenuated
  effect on ISO-induced oval cell proliferation: significantly attenuated

## NC[C@H](O)c1ccc(O)c(O)c1 [NE, norepinephrine]
[1]; 5% serum
  effect on proliferation of cultured oval cells: significantly promote the proliferation of cultured oval cells
[1]; NE, 5% serum
  concentration of maximal proliferative effect: 100 nM
  concentration up to which the proliferative effect persists: up to 100 μM
